# Experimental data published in EP0063826A2, “2-Amino-benzoic-acid derivatives, their preparation and their use as medicines or intermediates” (Dr. Karl Thomae GmbH, priority 1980, dated 1981).
# Test system: Mäusen
# Assay: Acute oral toxicity in mice (orienting)
# Format: in vivo
# Conditions: 2 000 mg/kg by gavage, group of 10, observation 14 days
# Method: Die akute Toxizität wurde orientierend an Gruppen von 10 Mäusen (5 weibliche und 5 männliche Mäuse; Beobachtungszeit: 14 Tage) nach Gabe einer Dosis von 2 000 mg/kg pro Tier in Methylcellulose-Suspension per Schlundsonde bestimmt: […]
compound,measurement,value
"O=C(O)c1cc(Cl)ccc1N1CCC2(CC1)OCCO2 [Substanz A, 5-Chlor-2-(1,4-dioxa-8-aza-spiroL4,6/decan-8-yl)-benzoe-säure]",Tieren gestorben,0 von 10
